pKi: −log10 of the molar value.
Key:
Carbonic anhydrase 9 = Carbonic anhydrase 9 (Homo sapiens, UniProt Q16790); test: Inhibition of human CA9 by CO2 hydration activity based stopped flow assay
Oryctolagus cuniculus [1] = test: Antiglaucoma activity in New Zealand rabbit model of carbomer-induced ocular hypertension assessed as reduction in intraocular pressure dosed with 50 uL of 2% compound solution and measured after 3 to 4 hrs; type: functional, Eye
Oryctolagus cuniculus [2] = test: Antiglaucoma activity in New Zealand rabbit model of hypertonic saline-induced ocular hypertension assessed as reduction in intraocular pressure dosed with 50 uL of 2% compound solution and measured after 1 to 2 hrs; type: functional, Eye
Oryctolagus cuniculus [3] = test: Antiglaucoma activity in New Zealand rabbit model of hypertonic saline-induced ocular hypertension assessed as reduction in intraocular pressure dosed with 50 uL of 2% compound solution and measured after 2 hrs; type: functional, Eye

Row | pKi (Carbonic anhydrase 9) | Compound | also measured
1 | 8.15 | NS(=O)(=O)c1no[n+]([O-])c1-c1ccccc1 | 
2 | 8.13 | NS(=O)(=O)c1c(-c2ccccc2)no[n+]1[O-] | 
3 | 8.10 | Cc1nonc1S(N)(=O)=O | Activity (Oryctolagus cuniculus [1]): 10 mmHg
4 | 8.14 | Cc1c(S(N)(=O)=O)no[n+]1[O-] | Activity (Oryctolagus cuniculus [1]): 10 mmHg
5 | 8.19 | Cc1no[n+]([O-])c1S(N)(=O)=O | Activity (Oryctolagus cuniculus [1]): 10 mmHg
6 | 8.20 | NS(=O)(=O)c1nonc1-c1ccccc1 | 
7 | 8.24 | COc1nonc1S(N)(=O)=O | 
8 | 8.18 | CCOc1nonc1S(N)(=O)=O | 
9 | 8.32 | CCCCOc1nonc1S(N)(=O)=O | 
10 | 8.41 | CC(C)COc1nonc1S(N)(=O)=O | 
11 | 8.24 | NS(=O)(=O)c1nonc1OCc1ccccc1 | 
12 | 8.20 | NS(=O)(=O)c1nonc1Oc1ccccc1 | 
13 | 7.20 | NS(=O)(=O)c1ccc(-c2nonc2-c2ccccc2)cc1 | 
14 | 7.20 | NS(=O)(=O)c1ccc(-c2no[n+]([O-])c2-c2ccccc2)cc1 | 
15 | 7.24 | NS(=O)(=O)c1ccc(-c2c(-c3ccccc3)no[n+]2[O-])cc1 | 
16 | 7.15 | NS(=O)(=O)c1ccc(-c2nonc2Oc2ccccc2)cc1 | 
17 | 7.19 | NS(=O)(=O)c1ccc(-c2c(Oc3ccccc3)no[n+]2[O-])cc1 | 
18 | 7.24 | NS(=O)(=O)c1ccc(-c2nonc2Sc2ccccc2)cc1 | 
19 | 5.30 | NS(=O)(=O)c1ccc(-c2c(Sc3ccccc3)no[n+]2[O-])cc1 | 
20 | 7.20 | NS(=O)(=O)c1ccc(-c2nonc2S(=O)(=O)c2ccccc2)cc1 | 
21 | 7.46 | NS(=O)(=O)c1ccc(-c2c(S(=O)(=O)c3ccccc3)no[n+]2[O-])cc1 | 
22 | 6.96 | NS(=O)(=O)c1ccc(OCc2nonc2-c2ccccc2)cc1 | 
23 | 7.32 | NS(=O)(=O)c1ccc(OCc2no[n+]([O-])c2-c2ccccc2)cc1 | 
24 | 7.30 | NC(=O)c1nonc1COc1ccc(S(N)(=O)=O)cc1 | Activity (Oryctolagus cuniculus [2]): 5 mmHg
25 | 7.49 | NC(=O)c1c(COc2ccc(S(N)(=O)=O)cc2)no[n+]1[O-] | Activity (Oryctolagus cuniculus [2]): 5 mmHg
26 | 7.97 | N#Cc1nonc1COc1ccc(S(N)(=O)=O)cc1 | Activity (Oryctolagus cuniculus [3]): 8 mmHg
27 | 7.95 | N#Cc1c(COc2ccc(S(N)(=O)=O)cc2)no[n+]1[O-] | Activity (Oryctolagus cuniculus [3]): 8 mmHg
28 | 8.14 | NS(=O)(=O)c1ccc(Oc2nonc2S(=O)(=O)c2ccccc2)cc1 | 
29 | 8.19 | NS(=O)(=O)c1ccc(Oc2no[n+]([O-])c2S(=O)(=O)c2ccccc2)cc1 | 

Row | Compound | pKi (Carbonic anhydrase 9) | also measured
30 | NS(=O)(=O)c1ccc(-c2nonc2[N+](=O)[O-])cc1 | 7.26 | 
31 | NS(=O)(=O)c1ccc(-c2c([N+](=O)[O-])no[n+]2[O-])cc1 | 7.26 | 

Source: ChEMBL document CHEMBL3352431, “Furazan and furoxan sulfonamides are strong α-carbonic anhydrase inhibitors and potential antiglaucoma agents” (Bioorg Med Chem, 2014)
